# Laboratory results taken from US20260215425A1, “NITRIFICATION INHIBITORS” (The University of Melbourne, priority 2022, published 2026).
# Legend:
# N. multiformis = assay: standard nitrification inhibition assay (NO2- production, Griess); format: cell-based, Nitrosospira multiformis; conditions: [NH4+]=3 mM, [inhibitor]=0.3 mM (10 mol %), pH 7.5, 30° C., 60 min
# Procedure: (§1) Cells of N. multiformis and N. europaea were cultivated to the mid-exponential growth phase (OD600=0.1, [NO2^−] approximately 800 μM) and harvested by filtration onto 0.2 μm membrane filters (Mixed Cellulose Ester (MCE), Sigma Aldrich). The cells were washed with 2×100 mL of 0.1 M sodium phosphate buffer (NaPB), containing 0.2 mM MgSO4 at pH 7.5. The cells were washed from the filter paper by transferring it to a sterile 50 mL tube and resuspending in NaPB (15 mL), followed by 5 s of vortexing (Ratek, Australia) and 3 s of sonication (Vevor, Australia). […] Experiments were performed in triplicate.
# (§2) In a deep 96-well plate (2 mL capacity), 980 μL of the bacterial inoculum (OD600=0.03) was added to the inhibitor (10 μL, 30 mmol L^−1 in Milli-Q water), the solutions were mixed thoroughly and pre-incubated in the dark for 5 minutes at 100 rpm and 30° C. (NH4)2SO4 (10 μL, 150 mM, from a prepared sterile solution containing 19.8 g L^−1 (NH4)2SO4 in Milli-Q water) was then added using a multi-channel pipette. The plate was covered with a with an O2 permeable membrane to ensure aeration (Breathe-Easy® sealing membrane, Sigma Aldrich) and incubated in a temperature-regulated rotary incubator (Ratek, Australia) in the dark for 60 minutes at 30° C. and 100 rpm. An aliquot of the reaction solution ([…]) was transferred to a 96-well spectrophotometric plate to which 50 µL of Griess reagent was added. The colour was allowed to develop for 15 minutes at room temperature, and the absorbance was measured at 540 nm. Each assay was accompanied by control treatments to determine the 0% and 100% NO2 signal. The percentage inhibition was calculated according to eqn. 1 from the NO2 production of the cells in NaPB (i) without additive (‘untreated cells’: 0% signal), (ii) with [NH4^+]=3 mM (‘uninhibited’ cells: 100% signal) and (iii) with [NH4^+]=3 mM and [inhibitor]=0.3 mM and 0.03 mM (10 mol % and 1 mol % of [NH4^+], ‘inhibited cells’). Experiments were performed in triplicate.
# soil A = assay: soil incubation, NH4+ and NO3- in soil A; conditions: 5 mol % of applied fertiliser-N, 21 days
# Procedure: Soils used in these studies were air-dried, ground and sieved (2 mm) prior to use. Soil microcosm incubations were carried out in 250 mL polypropylene specimen containers (Sarstedt, Germany), containing 20 g oven dry-weight equivalent of soil. Microcosms were treated with half the volume of water required to meet the desired water-filled pore space (WFPS %) of 60% and pre-incubated at 25° C. for seven days to revive soil microbial activity. Following pre-incubation, the remaining volume to reach the WFPS % was applied as one of the treatment solutions: (1) fertiliser ((NH4)2SO4,) 100 mg kg^−1, (2) fertiliser+0.5 mol % 4-MPT, (3) fertiliser+2.5 mol % 4-MPT, (4) fertiliser+5 mol % 4-MPT or (5) fertiliser+5 mol % compound 1, with three replicates of each treatment per time interval (n=3). Throughout the incubation period soil microcosms were kept aerated by removing the lid for 10 minutes every 2-3 days to allow gas exchange, and moisture levels were replenished via addition of Milli-Q water as required. At the end of the desired incubation period (i.e., after 0, 3, 7, 14, and 21 days, respectively), soil microcosms were removed and destructively sampled by treating with 2 M aqueous potassium chloride solution (KCl, 100 mL) and shaking for 1 h. Soil-KCl solutions were filtered (Whatman No. 42), and the filtrates were stored at −20° C. until the conclusion of the experiment, when all KCl extracts were analysed for the concentration of soil mineral nitrogen from ammonium (NH4^+—N) and from nitrate (NO3^−—N; the conversion of NO2 to NO3^− in soils is very rapid) after appropriate dilutions using Segmented Flow Analysis (San++, Skalar, Breda, The Netherlands). Results are reported as the mean of three replicates, errors reported are standard errors of the mean. Errors associated with raw data were carried through calculations using standard error propagation protocols.
# To determine the nitrification inhibitory effect of 4-MPT in vivo, soil incubations were performed by measuring concentration-time profiles for NH4^+ and NO3^− in an acidic Australian soil (soil A, pH=5.9) over 21 days. 4-MPT was tested at three different concentrations (0.5 mol %, 2.5 mol % and 5 mol % of applied fertiliser-N) and compared with the alkyl-substituted compound 1 (5 mol % of applied fertiliser-N) to confirm the requirement of the N-propargyl substitutent for inhibitory activity (FIG. 5).
# N. europaea = assay: standard nitrification inhibition assay (NO2- production, Griess); format: cell-based, Nitrosomonas europaea; conditions: [NH4+]=3 mM, [inhibitor]=0.3 mM (10 mol %), pH 7.5, 30° C., 60 min
# Procedure: as §1, §2
compound,measurement,setting,value
"CCCn1cc(C)nn1 [Compound 1, 4-Methyl-1-(n-propyl)-1H-1,2,3-triazole]",% Inhibition NM,N. multiformis,complete loss of inhibitory activity
same,NH4+ loss / conversion in soil,soil A,negligible levels of NH4^+ remaining after 21 days of incubation
same,% Inhibition NE,N. europaea,complete loss of inhibitory activity
